How the values were obtained:
spinal cord-injured rats = assay: Inhibitory activity on detrusor hyperreflexia (cystometry test); assay type: in vivo, rat; settings: average ± standard error
Description: The experiment was carried out according to the method of Cheng, et al. [Brain Res., Vol. 678, pp. 40-48 (1995)].
(§1) Female SD rats of 8 to 10 weeks of age (supplied by Japan SLC) were used in the test. Five to seven animals of these rats were put in each metal cage and reared by allowing them to freely take commercially available chow and water, in an animal room at room temperature between 19 and 25° C. and humidity between 30 and 70% under illumination for 12 hours (from 7:00 a.m. to 7:00 p.m.) per day.
An operation of spinal cord injury was performed in the rats. Each animal was anesthetized with diethyl ether and the skin of the back side thoracic cord part was incised. A laminectomy at the 7th to 8th thoracic vertebrae level was performed. Then, the thoracic cord at the T7-T8 segments was macroscopically cut and a section of spinal cord (about 5 mm) was removed, and the wound cavity of the removed part was filled with oxidized regenerated cellulose for hemostasis. The incised part was sutured with a surgical silk. After the spinal cord injury operation, urine was expressed manually twice per day (at 8:00-9:00 and 18:00-19:00) for about 3 weeks until autonomic micturition developed. An antibiotic (ampicillin, Sigma. Chemical Co.) was intramuscularly administered to the animals at a dose of 150 mg/kg once to twice per day for about 2 weeks.
(§2) Four to five weeks after the spinal cord injury, the rats were subjected to bladder catheterization. Under diethyl ether anesthesia, the bladder was exposed by midline incision of the abdomen. […] The bladder catheter was fixed with a surgical silk ligature and indwelled. The other end of the catheter was exposed subcutaneously from the back of the neck, plugged and then fixed to the skin with a surgical thread.
Four to six days after the bladder catheterization, a cystometry test was performed. The rats were put in a Bollman cage (Natsume Seisakusho Co., Ltd.) and a three-way cock was connected to the bladder catheter, one end of the cock was connected to a pressure transducer (Nihon Kohden Corp.) and the other end was connected to a 50-mL syringe (Terumo Corp.) arranged to an infusion pump (Harvard Apparatus, Inc.) for physiological saline infusion. The intravesical pressure signal from the pressure transducer was amplified with a strain pressure amplifier (AP-601G, Nihon Kohden Corp.) connected thereto, and was recorded on a thermal array recorder (RTA-1200, Nihon Kohden Corp.) via a polygraph system (RMP-6008, Nihon Kohden Corp.) containing the above amplifier. Sixty to ninety minutes after the completion of the preparation for the measurement, a room temperature physiological saline was infused into the bladder at a flow rate of 10 mL/h for 30 minutes, the occurence of micturition contractions was confirmed. Thirty minutes later, the infusion of physiological saline was carried out again for 30 minutes, and the intravesical pressure was measured to be used as the pre-administration value. Each of Compounds 1 to 6 was suspended in a 0.5 w/v % aqueous solution of methylcellulose at a concentration of 1 mg/mL suspension. The suspension was further diluted with a 0.5 w/v % aqueous solution of methylcellulose to prepare a suspension or solution for the administration at the intended concentration, which was then orally administered to the animals at a volume of 1 mL/kg. The period of 1, 3 and 5 hours after the dosing was used as the measuring time after the administration of the solvent or a compound tested, and the intravesical infusion of a physiological saline was carried out during a duration of 15 minutes around each measuring time (i.e. from 45 to 75 minutes, from 165 to 195 minutes and from 285 to 315 minutes after the administration of the compound).
Micturition contraction was measured as an index of the voiding function and pre-micturition contraction was measured as an index of detrusor hyperreflexia. […]

[1] = tested on: rats with bladder hypertrophy; assay: Inhibitory activity on detrusor instability (cystometry test after partial urethral obstruction); assay type: in vivo, rat; settings: average ± standard error
Description: The experiment was carried out according to the method of Malmgren, et al. [J. Urol., Vol. 142, pp. 1134-1138 (1989)].
as §1, with “(7:00 a.m.-7:00” for “(from 7:00 a.m. to 7:00”
The rats were subjected to operation of partial urethral obstruction. Each animal was anesthetized by intraperitoneal administration of 50 mg/kg pentobarbital sodium (Dainippon Pharmaceutical Co., Ltd.), and the midline incision of the skin and muscle was made in the lower abdomen. A polyethylene tube (PE-20, Nippon Becton Dickinson Co., Ltd.) was inserted into urethra from the urethral to the bladder neck. After the proximal urethra was peeled and double-ligated, the polyethylene tube was pulled out to cause partial urethral obstruction. The incised part was-sutured with a surgical silk thread. An antibiotic (ampicillin, Sigma Chemical Co.) was intramusclarly administered to the animals at a dose of 150 mg/kg.
as §2, with “Six” for “Four to five”, “operation of the partial urethral obstruction,” for “spinal cord injury,”, “rats with bladder hypertrophy” for “rats”, “anesthesia with pentobarbital sodium,” for “diethyl ether anesthesia,”
Four to six days after the bladder catheterization, a cystometry test was performed. The rats were put in a Bollman cage (Natsume Seisakusho Co., Ltd.) and a three-way cock was connected to the bladder catheter, one end of the cock was connected to a pressure transducer (Nihon Kohden Corp.) and the other end was connected to a 50-mL syringe (Terumo Corp.) arranged to an infusion pump (Harvard Apparatus, Inc.) for physiological saline infusion. The intravesical pressure signal from the pressure transducer was amplified with a strain pressure amplifier (AP-601G, Nihon Kohden Corp.) connected thereto, and was recorded on a thermal array recorder (RTA-1200, Nihon Kohden Corp.) via a polygraph system (RMP-6008, Nihon Kohden Corp.) containing the above amplifier. Sixty to ninety minutes after the completion of the preparation for the measurement, intravesical infusion of a room temperature physiological saline at a flow rate of 10 mL/h was started and continued until the completion of the test, and the occurrence of micturition contractions and pre-micturition contractions were confirmed. The chart for 30 minutes after 3 hours from the commencement of the saline infusion was used as the values before the drug administration. Each of Compounds 1 to 3 was suspended in a 0.5 w/v % aqueous solution of methylcellulose at a concentration of 1 mg/mL. The suspension was further diluted with a 0.5 w/v % aqueous solution of methylcellulose to prepare a suspension or solution for the administration at the intended concentration. This was then orally administered to the animals at a volume of 1 mL/kg. The period of 1, 3 and 5 hours after the dosing was used as the measuring time after the administration of the solvent or a compound tested, and a duration of 15 minutes around each measuring time (45 to 75 minutes, 165 to 195 minutes and 285 to 315 minutes after the administration of the compound) was used as the measuring period.
Micturition contraction was used as an index of the voiding function and pre-micturition contraction was measure as an index of detrusor instability. […]

Structure (SMILES) | micturition contractions (relative value, before administration = 100) (spinal cord-injured rats; 1 mg/kg p.o., after 1 hr.) | pre-micturition contractions (relative value, before administration = 100) (spinal cord-injured rats; 1 mg/kg p.o., after 1 hr.) | micturition contractions (relative value, before administration = 100) (spinal cord-injured rats; 1 mg/kg p.o., after 3 hrs.) | pre-micturition contractions (relative value, before administration = 100) (spinal cord-injured rats; 1 mg/kg p.o., after 3 hrs.) | micturition contractions (relative value, before administration = 100) (spinal cord-injured rats; 1 mg/kg p.o., after 5 hrs.) | pre-micturition contractions (relative value, before administration = 100) (spinal cord-injured rats; 1 mg/kg p.o., after 5 hrs.) | also measured
COc1ccc2c(c1)CS(=O)(=O)c1cccc(NC(=O)C(C)(O)C(F)(F)F)c1C2=O (stereo not drawn) [Compound 2] | – | – | – | – | – | – | micturition contractions (relative value, before administration = 100) (spinal cord-injured rats; 3 mg/kg p.o., after 1 hr.): 94.9 ± 14.3%; pre-micturition contractions (relative value, before administration = 100) (spinal cord-injured rats; 3 mg/kg p.o., after 1 hr.): 55.1 ± 7.3%; micturition contractions (relative value, before administration = 100) (spinal cord-injured rats; 3 mg/kg p.o., after 3 hrs.): 93.6 ± 16.7%; pre-micturition contractions (relative value, before administration = 100) (spinal cord-injured rats; 3 mg/kg p.o., after 3 hrs.): 80.2 ± 23.6%; micturition contractions (relative value, before administration = 100) (spinal cord-injured rats; 3 mg/kg p.o., after 5 hrs.): 99.4 ± 9.0%; pre-micturition contractions (relative value, before administration = 100) (spinal cord-injured rats; 3 mg/kg p.o., after 5 hrs.): 66.8 ± 14.5%; micturition contractions (relative value, before administration = 100) ([1]; 3 mg/kg p.o., after 1 hr.): 104.5 ± 2.0%; pre-micturition contractions (relative value, before administration = 100) ([1]; 3 mg/kg p.o., after 1 hr.): 67.5 ± 7.9%; micturition contractions (relative value, before administration = 100) ([1]; 3 mg/kg p.o., after 3 hrs.): 101.9 ± 5.9%; pre-micturition contractions (relative value, before administration = 100) ([1]; 3 mg/kg p.o., after 3 hrs.): 66.9 ± 8.5%; micturition contractions (relative value, before administration = 100) ([1]; 3 mg/kg p.o., after 5 hrs.): 100.9 ± 5.5%; pre-micturition contractions (relative value, before administration = 100) ([1]; 3 mg/kg p.o., after 5 hrs.): 74.7 ± 7.6%
CC(C)(C(=O)[O-])C(=O)Nc1cccc2c1C(=O)c1sccc1CS2(=O)=O.[Na+] [Compound 3] | 109.3 ± 5.7% | 66.2 ± 15.8% | 109.5 ± 8.2% | 65.3 ± 24.9% | 111.4 ± 5.6% | 52.3 ± 13.7% | micturition contractions (relative value, before administration = 100) ([1]; 10 mg/kg p.o., after 1 hr.): 96.8 ± 6.3%; pre-micturition contractions (relative value, before administration = 100) ([1]; 10 mg/kg p.o., after 1 hr.): 62.4 ± 7.1%; micturition contractions (relative value, before administration = 100) ([1]; 10 mg/kg p.o., after 3 hrs.): 95.7 ± 4.7%; pre-micturition contractions (relative value, before administration = 100) ([1]; 10 mg/kg p.o., after 3 hrs.): 49.1 ± 6.3%; micturition contractions (relative value, before administration = 100) ([1]; 10 mg/kg p.o., after 5 hrs.): 92.2 ± 4.6%; pre-micturition contractions (relative value, before administration = 100) ([1]; 10 mg/kg p.o., after 5 hrs.): 51.8 ± 3.5%
C[C@](O)(C(=O)Nc1cccc2c1C(=O)c1sccc1CO2)C(F)(F)F [Compound 4] | 95.5 ± 8.2% | 58.6% | 106.2 ± 7.0% | 44.4% | 121.4 ± 9.5% | 42.6% | –
CC(C)(C)C(=O)Nc1cccc2c1C(=O)c1sccc1CO2 [Compound 5] | 96.8 ± 4.4% | 86.2 ± 10.2% | 109.4 ± 6.4% | 57.3 ± 9.2% | 113.9 ± 15.4% | 44.8 ± 6.1% | –
CC(O)(C(=O)Nc1ccc(Cl)c2c1C(=O)c1sccc1CS2(=O)=O)C(F)(F)F (stereo not drawn) [Compound 6] | 96.8 ± 4.4% | 62.7 ± 9.3% | 109.4 ± 6.4% | 87.9 ± 16.9% | 113.9 ± 15.4% | 69.0 ± 11.8% | –

From patent publication US7276532B2, “Remedies for vesical hyperactivity” (Kyowa Hakko Kogyo Co., Ltd., priority 2001, dated 2007)
